The text below walks through data of patent publication US11725015B2, “Macrocyclic compound and uses thereof” (President and Fellows of Harvard College, priority 2017, dated 2023).

Usually IC50 stands for the concentration that gives 50% inhibition. Lower therefore signals greater potency.

The test system of assay [1] is FaDu subcutaneous xenograft. Put plainly: Antitumor effects in FaDu subcutaneous xenograft model in mice as monotherapy. The format is in vivo. The protocol:
A human squamous cell carcinoma of the head and neck (SCCHN) cell line FaDu, which had been cultured in an RPMI-1640 medium containing 10% FBS, and penicillin and streptomycin, was adjusted to a concentration of 4.8×10^7 cells/mL with Hanks' Balanced Salt Solution to prepare a cell suspension. The cell suspension was inoculated in a volume of 100 μL into a subcutaneous part of a right flank of nude mice, 7 weeks of ages (CAnN.Cg-Foxn1nu/CrlCrlj, female, Charles River Laboratories Japan Inc.).
On the basis of the volumes of tumors obtained on the first day of administration, the mice were grouped such that averages of the tumor volumes were substantially equal among the groups. Each test compound was dissolved in DMSO and a solution was stored at the freezer before use. Immediately before the administration, the stock solution was diluted in saline with 100 μM of hydroxypropyl-β-cyclodextrin. Each evaluation sample was intravenously administered at a maximum tolerable dose (MTD). Incidentally, the experiment was conducted on groups each consisting of 4 mice.

Assay [2] relates to human gastric cancer cell line MKN-28. Put plainly: MKN-28 growth inhibition assay. The format is cell-based. Conditions: 3 days incubation, CellTiter-Glo. The protocol:
(§1) In this assay, the growth inhibitory activities of test compounds in human gastric cancer cell lines NCI-N87 and MKN-28 were measured, respectively. NCI-N87 and MKN-28 cells were maintained in RPMI-1640 medium containing 10% FBS, penicillin and streptomycin in a 5% CO2 incubator (37° C.). To each well of a 96-well plate (Becton, Dickinson and Company, 353219), 100 μL of NCI-N87 or MKN-28 cell suspension adjusted to a concentration of 3×10^4 cells/mL with the culture medium was added, and the cells were incubated overnight in a 5% CO2 incubator (37° C.). On the next day, 100 μL of Compound (1) or Halichondrin B in three-fold dilution series suspended in the culture medium was added to each well, and the resultant was incubated for 3 days in a 5% CO2 incubator (37° C.). Then, cell viability was determined by CellTiter-Glo® Luminescent Cell Viability Assay (Promega) with EnVision 2103 Multilabel Reader (Perkin-Elmer, Wellesley, Mass.). Value of the wells containing cells without adding the test compounds was defined as 100% and the value of the wells containing no cells was defined as 0%. The concentrations of the test compound necessary for inhibiting the cell growth by 50% (i.e., an IC50 value) were calculated and are shown in Table 14.
For orientation: Cellular ATP, detected with luciferase, serves as a proxy for viable cell number.

For assay [3], the system named is human gastric cancer cell line NCI-N87. Put plainly: NCI-N87 growth inhibition assay. The conditions noted are these: 3 days incubation, CellTiter-Glo. The format is cell-based. The protocol: as §1
For assay [4], the system named is human urothelial cancer cell line SW780. Put plainly: SW780 growth inhibition assay. The format is cell-based. The conditions noted are these: 3 days incubation, CellTiter-Glo. Here is the method:
(§2) In this assay, the growth inhibitory activities of test compounds in the human urothelial cancer cell line SW780 were measured. SW780 cells were maintained in RPMI-1640 medium containing 10% FBS, penicillin, and streptomycin in a 5% CO2 incubator (37° C.). To each well of a 96-well plate (Becton, Dickinson and Company, 353219), 100 μL of a SW780 cell suspension adjusted to a concentration of 3×10^4 cells/mL with the culture medium was added, and the cells were incubated overnight in a 5% CO2 incubator (37° C.). On the next day, 100 μL of Compound (1) or Halichondrin B in three-fold dilution series suspended in the culture medium was added to each well, and the resultant was incubated for 3 days in a 5% CO2 incubator (37° C.). Then, cell viability was determined by CellTiter-Glo® Luminescent Cell Viability Assay (Promega) with EnVision 2103 Multilabel Reader (Perkin-Elmer, Wellesley, Mass.). Value of the wells containing cells without adding the test compounds was defined as 100% and the value of the wells containing no cells was defined as 0%. The concentrations of the test compounds necessary for inhibiting the cell growth by 50% (i.e., an IC50 value) were calculated, and are shown in Table 16.

Assay [5] has as its system FaDu subcutaneous xenograft. Put plainly: Antitumor effects in FaDu subcutaneous xenograft model in combination with cetuximab in mice. The format is in vivo. The protocol:
A human squamous cell carcinoma of the head and neck (SCCHN) cell line FaDu, which had been cultured in an RPMI-1640 medium containing 10% FBS, and penicillin and streptomycin, was adjusted to a concentration of 5×10^7 cells/mL with Hanks' Balanced Salt Solution to prepare a cell suspension. The cell suspension was inoculated in a volume of 100 μL into a subcutaneous part of a right flank of nude mice, 7 weeks of ages (CAnN.Cg-Foxnlnu/CrlCrlj, female, Charles River Laboratories Japan Inc.).
On the basis of the volumes of tumors obtained on the first day of administration, the mice were grouped such that averages of the tumor volumes were substantially equal among the groups. Each test compound was dissolved in DMSO and a solution was stored at the freezer before use. Immediately before the administration, the stock solution was diluted in saline with 100 μM of hydroxypropyl-β-cyclodextrin. […] Incidentally, the experiment was conducted on groups each consisting of 4 mice.

Assay [6] concerns human synovial sarcoma cell line HS-SY-II. Put plainly: HS-SY-II growth inhibition assay. The format is cell-based. The conditions noted are these: 3 days incubation, CellTiter-Glo. Here is the method: as §2, with “human synovial sarcoma” for “human urothelial cancer”, “line HS-SY-II” for “line SW780”, “measured. […]” for “measured. SW780”, “in a DMEM” for “in RPMI-1640”, “a HS-SY-II” for “a SW780”, “Table 17.” for “Table 16.”

Structures are written as SMILES.

Consider `C=C1C[C@@H]2CC[C@@]34C[C@H]5O[C@H]6[C@@H](O3)[C@H]3O[C@H](CC[C@@H]3O[C@H]6C5O4)CC(=O)O[C@@H]3[C@@H](C)[C@@H]4O[C@@H]5C[C@]6(C[C@@H]7O[C@]8(C[C@H](C)[C@@H]9O[C@H](CN)[C@H](O)C[C@@H]9O8)C[C@H](C)[C@@H]7O6)O[C@@H]5C[C@@H]4O[C@H]3C[C@H]3O[C@@H](CC[C@@H]1O2)C[C@@H](C)C3=C` [Compound (1)], for which the “Tumor Regression (%)” value in assay [1] (0.2 mg/kg intravenously (MTD)) was 43%. Moreover, the IC50 in assay [2] was 0.015 nM; in assay [3], 0.002 nM; in assay [4], 0.017 nM; in assay [6], 0.002 nM. The “Tumor Regression on day 35 (%)” value amounted to 38% in assay [5] (0.05 mg/kg intravenously + cetuximab 20 mg/kg) and 60% in assay [5] (0.1 mg/kg intravenously + cetuximab 20 mg/kg).

As to `C=C1C[C@@H]2CC[C@@]34C[C@H]5O[C@H]6[C@@H](O3)[C@H]3O[C@H](CC[C@@H]3O[C@H]6[C@H]5O4)CC(=O)O[C@@H]3[C@@H](C)[C@@H]4O[C@@H]5C[C@]6(C[C@@H]7O[C@]8(C[C@H](C)[C@@H]9O[C@H]([C@@H](O)C[C@@H](O)CO)C[C@@H]9O8)C[C@H](C)[C@@H]7O6)O[C@@H]5C[C@@H]4O[C@H]3C[C@H]3O[C@@H](CC[C@@H]1O2)C[C@@H](C)C3=C` [Halichondrin B, reference compound], in assay [1] (0.05 mg/kg intravenously (MTD)), the “Tumor Regression (%)” value is 0%. Also, the IC50 in assay [2] turned out to be 0.017 nM; in assay [3], 0.007 nM; in assay [4] it was 0.032 nM; in assay [6], 0.01 nM. Further, the results for the “Tumor Regression on day 35 (%)” value in assay [5] (0.0125 mg/kg intravenously + cetuximab 20 mg/kg) and in assay [5] (0.025 mg/kg intravenously + cetuximab 20 mg/kg) were −38% and −2%, respectively.
